Literature values, collected in patent publication US11077086B2, “Solid dosage form composition for buccal or sublingual administration of cannabinoids” (PHARMACEUTICAL PRODUCTIONS, INC., priority 2014, dated 2021).

System: cannabinoid receptor

Q: For C=C(C)[C@@H]1CCC(C)=C[C@H]1c1c(O)cc(CCCCC)cc1O [cannabidiol (CBD), cannabidiol], which “affinity for the cannabinoid receptor” value is on record?
A: do not have significant affinity
